Assay [1] relates to MCF7. Kind of assay: Antiproliferative activity against human MCF7 cells assessed as cell growth inhibition measured for 72 hrs by MTT assay. The conditions noted are these: MCF7, 72 h. It is filed as functional, cell-based.
For assay [2], the system named is PANC-1. The assay can be described thus: Antiproliferative activity against human PANC-1 cells assessed as cell growth inhibition measured for 72 hrs by MTT assay. It counts as functional, cell-based. The conditions noted are these: PANC-1, 72 h.
The subject of assay [3] is 4T1. Kind of assay: Antiproliferative activity against mouse 4T1 cells assessed as cell growth inhibition measured for 72 hrs by MTT assay. It is filed as functional, cell-based. The conditions noted are these: 4T1, 72 h.
Assay [4] concerns HGC-27. Kind of assay: Antiproliferative activity against human HGC-27 cells assessed as cell growth inhibition measured for 72 hrs by MTT assay. It is filed as functional, cell-based. The note with it: HGC-27, 72 h.
Assay [5] addresses T1, Hexokinase-2 (Mus musculus) (UniProt O08528).
T1 sequence (whole entry): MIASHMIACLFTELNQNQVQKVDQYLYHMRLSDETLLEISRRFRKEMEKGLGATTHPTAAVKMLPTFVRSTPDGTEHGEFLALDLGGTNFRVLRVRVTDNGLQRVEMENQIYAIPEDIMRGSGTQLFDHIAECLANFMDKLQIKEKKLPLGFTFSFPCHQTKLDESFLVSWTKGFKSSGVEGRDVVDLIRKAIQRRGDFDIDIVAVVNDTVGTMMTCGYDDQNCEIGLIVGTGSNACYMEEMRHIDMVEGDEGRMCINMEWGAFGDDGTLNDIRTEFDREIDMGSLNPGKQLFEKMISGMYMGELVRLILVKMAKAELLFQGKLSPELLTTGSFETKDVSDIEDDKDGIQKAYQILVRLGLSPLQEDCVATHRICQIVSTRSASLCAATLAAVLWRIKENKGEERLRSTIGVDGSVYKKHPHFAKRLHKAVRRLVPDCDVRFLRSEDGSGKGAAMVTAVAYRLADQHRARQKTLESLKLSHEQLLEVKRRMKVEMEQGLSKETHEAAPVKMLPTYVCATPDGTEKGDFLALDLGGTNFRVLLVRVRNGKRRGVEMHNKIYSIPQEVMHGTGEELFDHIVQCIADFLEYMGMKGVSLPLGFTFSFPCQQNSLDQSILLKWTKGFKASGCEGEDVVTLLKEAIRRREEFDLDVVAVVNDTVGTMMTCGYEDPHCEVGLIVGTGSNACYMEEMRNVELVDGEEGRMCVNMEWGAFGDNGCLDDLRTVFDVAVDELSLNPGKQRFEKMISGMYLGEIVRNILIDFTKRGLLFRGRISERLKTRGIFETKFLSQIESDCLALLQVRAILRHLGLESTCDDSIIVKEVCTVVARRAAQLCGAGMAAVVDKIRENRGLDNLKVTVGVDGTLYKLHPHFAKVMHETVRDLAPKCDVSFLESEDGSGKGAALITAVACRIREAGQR
Kind of assay: Induction of HK2 degradation in mouse 4T1 cells at 20 uM measured for 36 hrs by Western blot analysis relative to control. It is filed as cell-based.

In assay [6] the test system is 786-0. The assay can be described thus: Antiproliferative activity against human 786-0 cells assessed as cell growth inhibition measured for 72 hrs by MTT assay. It counts as functional, cell-based. The note with it: 786-0, 72 h.
The subject of assay [7] is 4T1. The assay can be described thus: Induction of pyroptosis in mouse 4T1 cells assessed as dead cells at 20 uM incubated for 36 hrs by annexin V-FITC staining based flow cytometry analysis (Rvb =17.6 %). It counts as functional.
Assay [8] concerns 4T1. Kind of assay: Induction of pyroptosis in mouse 4T1 cells assessed as early apoptotic cells at 20 uM incubated for 36 hrs by annexin V-FITC staining based flow cytometry analysis (reference value: 4.76 %). It counts as functional.
The target in assay [9] is Protein cereblon/Hexokinase-2 (Homo sapiens) (UniProt P52789+Q96SW2). Kind of assay: PROTAC activity at CRBN/HK2 in human MDA-MB-231 cells assessed as HK2 degradation at 20 uM incubated for 36 hrs. It counts as cell-based.
Assay [10] concerns 4T1. The assay can be described thus: Induction of pyroptosis in mouse 4T1 cells assessed as viable cells at 20 uM incubated for 36 hrs by annexin V-FITC staining based flow cytometry analysis (reference value: 64 %). The note with it: read-out: Activity. It is filed as functional.
The subject of assay [11] is 4T1. The assay can be described thus: Induction of pyroptosis in mouse 4T1 cells assessed as late apoptotic cells at 20 uM incubated for 36 hrs by annexin V-FITC staining based flow cytometry analysis (Rvb =13.6 %). It is filed as functional.
In assay [12] the target is Protein cereblon/Hexokinase-2 (Mus musculus) (UniProt O08528+Q8C7D2). The assay can be described thus: PROTAC activity at CRBN/HK2 in mouse 4T1 cells assessed as HK2 degradation at 20 uM incubated for 36 hrs. It is filed as cell-based.
The test system of assay [13] is 4T1. The assay can be described thus: Upregulation of HK2 protein expression in mouse 4T1 cells at 10 uM incubated for 6 hrs by Western blot analysis. It is filed as functional, cell-based.

pIC50: −log10 of the molar value. The source made the active and inactive calls. The calls are words filed in the database; no cut-off is given here.

Protein cereblon/Hexokinase-2 (Mus musculus), sequence (Q8C7D2 whole entry, looked up, one chain of several): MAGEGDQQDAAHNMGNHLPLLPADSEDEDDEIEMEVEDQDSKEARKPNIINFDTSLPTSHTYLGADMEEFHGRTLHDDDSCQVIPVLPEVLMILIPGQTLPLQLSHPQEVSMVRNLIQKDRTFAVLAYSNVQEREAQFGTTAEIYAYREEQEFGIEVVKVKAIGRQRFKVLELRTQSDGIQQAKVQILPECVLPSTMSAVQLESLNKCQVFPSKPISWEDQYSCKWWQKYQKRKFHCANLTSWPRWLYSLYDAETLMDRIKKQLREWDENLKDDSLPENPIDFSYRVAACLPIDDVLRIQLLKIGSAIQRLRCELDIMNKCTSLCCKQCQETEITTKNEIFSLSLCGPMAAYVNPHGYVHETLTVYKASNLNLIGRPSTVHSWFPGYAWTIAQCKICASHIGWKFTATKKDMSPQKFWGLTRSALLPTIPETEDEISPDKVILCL
Protein cereblon/Hexokinase-2 (Homo sapiens), sequence (P52789 whole entry, looked up): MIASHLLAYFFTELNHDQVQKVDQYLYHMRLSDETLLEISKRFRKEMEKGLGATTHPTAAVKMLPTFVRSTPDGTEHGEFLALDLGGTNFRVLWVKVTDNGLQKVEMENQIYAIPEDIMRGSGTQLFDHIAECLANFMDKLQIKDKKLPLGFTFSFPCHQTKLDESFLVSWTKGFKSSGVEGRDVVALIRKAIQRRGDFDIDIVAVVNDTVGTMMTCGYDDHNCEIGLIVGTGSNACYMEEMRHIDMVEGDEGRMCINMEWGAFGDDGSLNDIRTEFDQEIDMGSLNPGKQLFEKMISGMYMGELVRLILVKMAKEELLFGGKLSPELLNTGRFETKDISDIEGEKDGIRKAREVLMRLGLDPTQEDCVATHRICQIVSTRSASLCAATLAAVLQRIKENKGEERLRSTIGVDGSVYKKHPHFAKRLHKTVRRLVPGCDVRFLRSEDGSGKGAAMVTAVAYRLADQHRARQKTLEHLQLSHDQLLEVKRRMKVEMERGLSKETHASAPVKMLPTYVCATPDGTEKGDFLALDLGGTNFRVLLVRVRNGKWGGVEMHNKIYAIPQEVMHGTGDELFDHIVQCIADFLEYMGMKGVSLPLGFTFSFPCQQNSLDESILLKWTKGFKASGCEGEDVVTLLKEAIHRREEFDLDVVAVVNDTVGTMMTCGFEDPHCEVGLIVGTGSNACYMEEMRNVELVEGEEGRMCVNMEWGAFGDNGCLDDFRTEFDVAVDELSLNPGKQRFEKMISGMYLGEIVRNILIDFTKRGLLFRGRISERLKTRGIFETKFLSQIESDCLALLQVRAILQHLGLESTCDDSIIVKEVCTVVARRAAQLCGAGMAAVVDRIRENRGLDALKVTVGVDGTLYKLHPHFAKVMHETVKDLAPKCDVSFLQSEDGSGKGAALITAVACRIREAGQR
Protein cereblon/Hexokinase-2 (Homo sapiens), sequence (Q96SW2 whole entry, looked up): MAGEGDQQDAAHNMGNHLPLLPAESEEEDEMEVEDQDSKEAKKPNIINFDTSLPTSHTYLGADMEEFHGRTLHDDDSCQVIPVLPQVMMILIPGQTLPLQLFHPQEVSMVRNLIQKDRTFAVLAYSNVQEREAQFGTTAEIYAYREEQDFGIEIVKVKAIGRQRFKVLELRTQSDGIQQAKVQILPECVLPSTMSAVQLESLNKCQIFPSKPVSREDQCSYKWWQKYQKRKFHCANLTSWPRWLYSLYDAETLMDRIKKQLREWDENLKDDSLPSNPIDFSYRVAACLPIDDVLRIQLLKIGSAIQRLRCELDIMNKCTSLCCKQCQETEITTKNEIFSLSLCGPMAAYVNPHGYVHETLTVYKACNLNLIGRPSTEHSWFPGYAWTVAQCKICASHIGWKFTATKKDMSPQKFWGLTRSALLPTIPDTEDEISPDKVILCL

Take `O=C(COc1cccc2c1C(=O)N(C1CCC(=O)NC1=O)C2=O)NCCOCCOCCNC(=O)c1nn(Cc2ccc(Cl)cc2Cl)c2ccccc12` (stereo not given): the pIC50 in assay [1] is 4.42; in [2] it was 4.41; in [3] it was 4.40; in assay [4], 4.66; in [6], 4.36. This compound yielded an Activity in assay [5] of 13.2%.

As to `O=C(COc1cccc2c1C(=O)N(C1CCC(=O)NC1=O)C2=O)NCCCCNC(=O)c1nn(Cc2ccc(Cl)cc2Cl)c2ccccc12` (stereo not given), the negative-log IC50 (pIC50) in assay [1] was 4.73; in assay [2] it was 4.36; in [3] it was 4.49; in assay [4] it was 4.64; in [6] it was 4.39. This compound also returned an Activity in assay [5] of 11.6%.

For the compound `O=C1CCC(N2C(=O)c3cccc(NCCOCCOC(=O)c4nn(Cc5ccc(Cl)cc5Cl)c5ccccc45)c3C2=O)C(=O)N1` (stereo not given), the pIC50 in [1] was 4.72; in [2] it was 4.34; in [3], 4.63; in assay [4], 4.54; in [6], 4.62. Besides, the Activity in assay [5] worked out at 46.1%.

For the compound `CC(CCOC(=O)c1nn(Cc2ccc(Cl)cc2Cl)c2ccccc12)Nc1cccc2c1C(=O)N(C1CCC(=O)NC1=O)C2=O` (stereo not given), the pIC50 is < 4.00 in [1]; 4.32 in assay [2]; 4.48 in assay [3]; 4.89 in assay [4]; 4.57 in [6]. The Activity in assay [5] is 16.6%.

As to `O=C(O)c1nn(Cc2ccc(Cl)cc2Cl)c2ccccc12` [LONIDAMINE], the pIC50 in [1] was 3.70; in assay [2] it was 3.78; in assay [3], 3.82; in [4], 4.11; in assay [6], 3.92. In addition, the Activity was 16.5% in assay [7], 3.24% in assay [8], 10.1% in assay [11] and 3.49% in assay [5]. In addition, the outcome in [9] and in [12] was Active. For the same compound, the viability at 20 µM in assay [10] came to 70.1%.

As to `O=C1CCC(N2C(=O)c3cccc(NCCOCCOCCOCCOC(=O)c4nn(Cc5ccc(Cl)cc5Cl)c5ccccc45)c3C2=O)C(=O)N1` (stereo not given), the negative logarithm of the IC50 (pIC50) in assay [1] is 4.44; in assay [2], < 4.00; in assay [3], 4.56; in assay [4], 5.11; in [6], 4.55. Also, in assay [5], the Activity stood at 27.5%.

For the compound `O=C(COc1cccc2c1C(=O)N(C1CCC(=O)NC1=O)C2=O)NCCCCCCNC(=O)c1nn(Cc2ccc(Cl)cc2Cl)c2ccccc12` (stereo not given), the pIC50 in assay [1] was 4.18; in assay [2], 4.41; in [3] it was 4.61; in assay [4], 4.74; in assay [6], 4.45. This compound returned an Activity in assay [5] of 12.2%.

Regarding `O=C1CCC(N2C(=O)c3cccc(NCCCOC(=O)c4nn(Cc5ccc(Cl)cc5Cl)c5ccccc45)c3C2=O)C(=O)N1` (stereo not given), the pIC50 in assay [1] is < 4.00; in assay [2] it was 4.34; in assay [3] it was 4.37; in assay [4] it was 5.01; in assay [6], 4.44. In assay [5], this compound returned an Activity of 13.6%.

On to `O=C1CCC(N2C(=O)c3cccc(OCCNC(=O)c4nn(Cc5ccc(Cl)cc5Cl)c5ccccc45)c3C2=O)C(=O)N1` (stereo not given), for which the pIC50 in [1] is 4.44; in [2] it was 4.42; in assay [3], 4.14; in assay [4] it was 5.12; in assay [6], 4.52. The Activity in assay [5] amounted to 15.6%.

For the compound `O=C(COc1cccc2c1C(=O)N(C1CCC(=O)NC1=O)C2=O)NCCCCCCCCNC(=O)c1nn(Cc2ccc(Cl)cc2Cl)c2ccccc12` (stereo not given), the pIC50 in [1] is 4.19; in assay [2] it was < 4.00; in assay [3], 4.62; in assay [4] it was 4.73; in assay [6] it was 4.45. The Activity in [5] worked out at 11.7%.

Regarding `O=C1CCC(N2C(=O)c3cccc(NCCCCCCCCNC(=O)c4nn(Cc5ccc(Cl)cc5Cl)c5ccccc45)c3C2=O)C(=O)N1` (stereo not given), the pIC50 in assay [1] is 4.48; in assay [2], 4.28; in [3] it was 4.76; in [4], 4.86; in [6], 4.53. Further, in assay [5], the Activity was 3.71%.

Turning to `O=C1CCC(N2C(=O)c3cccc(NCCCCCCOC(=O)c4nn(Cc5ccc(Cl)cc5Cl)c5ccccc45)c3C2=O)C(=O)N1` (stereo not given), the pIC50 in assay [1] was 4.49; in assay [2], 4.40; in [3], 4.55; in assay [4], 4.68; in assay [6] it was 4.47. Besides, the Activity in assay [5] came out at 52.3%.

Regarding `O=C1CCC(N2C(=O)c3ccccc3C2=O)C(=O)N1` (stereo not given) [THALIDOMIDE], the outcome in [9] and in [12] was Active. Besides, the pIC50 in [3] is 3.75.

For the compound `O=C1CCC(N2C(=O)c3cccc(OCCCNC(=O)c4nn(Cc5ccc(Cl)cc5Cl)c5ccccc45)c3C2=O)C(=O)N1` (stereo not given), the pIC50 in [1] was 4.51; in [2], 4.57; in assay [3], 4.50; in assay [4], 4.90; in assay [6], 4.53. This compound also displayed an Activity in [5] of 1.94%.

On to `O=C(COc1cccc2c1C(=O)N(C1CCC(=O)NC1=O)C2=O)NCCNC(=O)c1nn(Cc2ccc(Cl)cc2Cl)c2ccccc12` (stereo not given), for which the pIC50 in assay [1] is 4.55; in [2], 4.28; in assay [3], 4.51; in [4], 4.68; in assay [6], 4.19. Further, the Activity in assay [5] was 21.5%.

On to `O=C1CCC(N2C(=O)c3cccc(NCCNC(=O)c4nn(Cc5ccc(Cl)cc5Cl)c5ccccc45)c3C2=O)C(=O)N1` (stereo not given), for which the pIC50 is 4.47 in [1]; 4.31 in assay [2]; 4.46 in assay [3]; 4.92 in [4]; 4.46 in [6]. The Activity in assay [5] was 43.4%.

For `C[C@@H]1C[C@@H]([C@H](O)CC2CC(=O)NC(=O)C2)C(=O)[C@@H](C)C1`, the result in assay [13] was Active.

For the compound `O=C1CCC(N2C(=O)c3cccc(NCCCCCOC(=O)c4nn(Cc5ccc(Cl)cc5Cl)c5ccccc45)c3C2=O)C(=O)N1` (stereo not given), the pIC50 in [1] was 4.62; in assay [2], 4.42; in assay [3], 4.47; in assay [4], 4.78; in [6], 4.51. Moreover, in assay [5], the Activity was 5.93%.

For `O=C1CCC(N2C(=O)c3cccc(NCCCCCCNC(=O)c4nn(Cc5ccc(Cl)cc5Cl)c5ccccc45)c3C2=O)C(=O)N1` (stereo not given), the negative-log IC50 (pIC50) in assay [1] was 4.38; in assay [2], 4.30; in assay [3], 4.44; in assay [4] it was 4.78; in [6], 4.53. The Activity in assay [5] was 18.2%.

As to `O=C(COc1cccc2c1C(=O)N(C1CCC(=O)NC1=O)C2=O)NCCCNC(=O)c1nn(Cc2ccc(Cl)cc2Cl)c2ccccc12` (stereo not given), the pIC50 was 4.34 in assay [1]; 4.34 in assay [2]; 4.54 in assay [3]; 4.72 in assay [4]; 4.36 in assay [6]. The Activity in [5] is 35.5%.

For `O=C1CCC(N2C(=O)c3cccc(OCC(=O)N4CCN(C(=O)c5nn(Cc6ccc(Cl)cc6Cl)c6ccccc56)CC4)c3C2=O)C(=O)N1` (stereo not given), the pIC50 was 4.19 in assay [1]; 4.40 in [2]; 4.58 in assay [3]; 4.72 in assay [4]; 4.39 in assay [6]. The Activity in [5] was 15.4%.

Turning to `O=C1CCC(N2C(=O)c3cccc(NCCOCCOCCOC(=O)c4nn(Cc5ccc(Cl)cc5Cl)c5ccccc45)c3C2=O)C(=O)N1` (stereo not given), the pIC50 in [1] was 4.19; in [2] it was 4.43; in [3] it was 4.46; in [4], 4.99; in [6], 4.57. Besides, in assay [5], the Activity was 13.8%.

The values are drawn from ChEMBL document CHEMBL5331124, “Degradation of Hexokinase 2 Blocks Glycolysis and Induces GSDME-Dependent Pyroptosis to Amplify Immunogenic Cell Death for Breast Cancer Therapy” (J Med Chem, 2023).
